The assay has as its target ROCK2 (Homo sapiens (Human), UniProt O75116). Kind of assay: biochemical.
ROCK2, sequence (O75116 whole entry, species assumed): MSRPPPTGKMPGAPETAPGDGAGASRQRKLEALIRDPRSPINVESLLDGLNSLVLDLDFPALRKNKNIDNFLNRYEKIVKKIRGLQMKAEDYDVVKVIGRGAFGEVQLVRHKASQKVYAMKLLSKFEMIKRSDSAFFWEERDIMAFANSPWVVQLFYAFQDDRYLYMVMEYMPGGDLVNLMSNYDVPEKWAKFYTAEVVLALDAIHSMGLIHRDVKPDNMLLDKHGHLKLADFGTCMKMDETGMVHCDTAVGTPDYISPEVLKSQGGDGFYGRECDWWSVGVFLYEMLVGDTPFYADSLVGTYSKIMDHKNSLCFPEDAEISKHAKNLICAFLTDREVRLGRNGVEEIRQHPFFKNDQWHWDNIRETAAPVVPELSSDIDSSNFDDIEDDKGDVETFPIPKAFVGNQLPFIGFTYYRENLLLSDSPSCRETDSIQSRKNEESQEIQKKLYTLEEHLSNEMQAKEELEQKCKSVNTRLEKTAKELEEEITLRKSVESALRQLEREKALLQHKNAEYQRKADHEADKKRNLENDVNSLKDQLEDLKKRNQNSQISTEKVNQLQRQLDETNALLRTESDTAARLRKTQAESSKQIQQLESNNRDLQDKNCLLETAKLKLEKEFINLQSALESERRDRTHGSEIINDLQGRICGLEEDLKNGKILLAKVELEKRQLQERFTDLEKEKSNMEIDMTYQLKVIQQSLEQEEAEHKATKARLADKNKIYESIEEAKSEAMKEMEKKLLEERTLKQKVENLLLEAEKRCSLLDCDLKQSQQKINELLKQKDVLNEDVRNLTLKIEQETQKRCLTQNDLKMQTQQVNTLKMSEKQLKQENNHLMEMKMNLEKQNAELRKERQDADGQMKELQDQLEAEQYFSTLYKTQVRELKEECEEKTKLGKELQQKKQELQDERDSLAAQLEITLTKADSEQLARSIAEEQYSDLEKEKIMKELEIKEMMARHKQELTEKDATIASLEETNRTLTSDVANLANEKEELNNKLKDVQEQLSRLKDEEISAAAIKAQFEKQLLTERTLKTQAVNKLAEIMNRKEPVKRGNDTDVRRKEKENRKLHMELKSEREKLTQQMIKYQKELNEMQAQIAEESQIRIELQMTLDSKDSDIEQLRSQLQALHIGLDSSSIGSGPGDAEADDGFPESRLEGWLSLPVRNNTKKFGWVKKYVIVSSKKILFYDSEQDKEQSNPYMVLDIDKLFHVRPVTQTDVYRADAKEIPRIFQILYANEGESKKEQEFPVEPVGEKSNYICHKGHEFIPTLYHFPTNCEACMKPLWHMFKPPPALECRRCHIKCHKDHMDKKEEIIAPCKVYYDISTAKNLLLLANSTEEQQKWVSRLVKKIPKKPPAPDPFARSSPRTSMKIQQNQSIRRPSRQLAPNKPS
As usually defined, the IC50 is the point on the concentration scale where inhibition reaches its midpoint. `COc1cccc(NC2CCN(c3ccc(-c4ccnc(F)c4)c(OC)n3)C2=O)c1` (racemic) [Example 127, 1-(2′-fluoro-2-methoxy-[3,4′-bipyridin]-6-yl)-3-((3-methoxyphenyl)amino)pyrrolidin-2-one] showed an IC50 of 10 to 100 nM. The value for `COc1cccc(NC2CCN(c3ccc(-c4ccnc5[nH]ccc45)c(OC)n3)C2=O)c1` (racemic) [Example 128, 1-(6-methoxy-5-(1H-pyrrolo[2,3-b]pyridin-4-yl)pyridin-2-yl)-3-((3-methoxyphenyl)amino) pyrrolidin-2-one] was 10 to 100 nM; that for `COc1cccc(NC2CCN(c3ccc(-c4c[nH]nc4C)c(OC)n3)C2=O)c1` (racemic) [Example 129, 1-(6-methoxy-5-(3-methyl-1H-pyrazol-4-yl)pyridin-2-yl)-3-((3-methoxyphenyl)amino)pyrrolidin-2-one] was less than 10 nM. The value for `COc1cccc(NC2CCN(c3ccc(-c4cn[nH]c4)c(CO)c3)C2=O)c1` (racemic) [Example 187, 1-(3-(hydroxymethyl)-4-(1H-pyrazol-4-yl)phenyl)-3-((3-methoxyphenyl)amino) pyrrolidin-2-one] was 100 to 2200 nM. The value for `COc1cccc(NC2CCN(c3cc(C)c(-c4cn[nH]c4)cn3)C2=O)c1` (racemic) [Example 200, 3-((3-methoxyphenyl)amino)-1-(4-methyl-5-(1H-pyrazol-4-yl)pyridin-2-yl)pyrrolidin-2-one] was 100 to 2200 nM. On to `COc1nc(N2CCC(Nc3cccc(OCC4CC4)c3)C2=O)ccc1-c1cn[nH]c1` (racemic) [Example 205, 3-((3-(cyclopropylmethoxy)phenyl)amino)-1-(6-methoxy-5-(1H-pyrazol-4-yl)pyridin-2-yl)pyrrolidin-2-one], for which the IC50 is less than 10 nM. The value for `CCc1cc(N2CCC(Nc3ccc(F)c(OCC4CC4)c3)C2=O)ncc1-c1cn[nH]c1` (racemic) [Example 213, 3-((3-(cyclopropylmethoxy)-4-fluorophenyl)amino)-1-(4-ethyl-5-(1H-pyrazol-4-yl)pyridin-2-yl)pyrrolidin-2-one] was 100 to 2200 nM. The value for `COc1cccc(NC2CCN(c3ccc(-c4cn[nH]c4)cc3)C2=O)n1` (racemic) [Example 223, 1-(4-(1H-pyrazol-4-yl)phenyl)-3-((6-methoxypyridin-2-yl)amino)pyrrolidin-2-one] was 10 to 100 nM; that for `COc1nc(N2CCC(Nc3ccccc3F)C2=O)ccc1-c1cn[nH]c1` (racemic) [Example 224, 3-((2-fluorophenyl)amino)-1-(6-methoxy-5-(1H-pyrazol-4-yl)pyridin-2-yl)pyrrolidin-2-one] was less than 10 nM; that for `COc1nc(N2CCC(N3CCOc4ccccc43)C2=O)ccc1-c1cn[nH]c1` (racemic) [Example 225, 3-(2H-benzo[b][1,4]oxazin-4(3H)-yl)-1-(6-methoxy-5-(1H-pyrazol-4-yl)pyridin-2-yl)pyrrolidin-2-one] was less than 10 nM. The value for `O=C1C(Nc2cnccn2)CCN1c1ccc(-c2cn[nH]c2)cc1` (racemic) [Example 226, 1-(4-(1H-pyrazol-4-yl)phenyl)-3-(pyrazin-2-ylamino)pyrrolidin-2-one] was 10 to 100 nM. As to `O=C1C(Nc2cncnc2)CCN1c1ccc(-c2cn[nH]c2)cc1` (racemic) [Example 227, 1-(4-(1H-pyrazol-4-yl)phenyl)-3-(pyrimidin-5-ylamino)pyrrolidin-2-one], the IC50 was 10 to 100 nM. The value for `COc1nc(N2CCC(N3CCNc4ccccc43)C2=O)ccc1-c1cn[nH]c1` (racemic) [Example 228, 3-(3,4-dihydroquinoxalin-1(2H)-yl)-1-(6-methoxy-5-(1H-pyrazol-4-yl)pyridin-2-yl)pyrrolidin-2-one] was less than 10 nM; that for `COc1nc(N2CCC(Nc3ccc4c(c3)OCO4)C2=O)ccc1-c1cn[nH]c1` (racemic) [Example 255, 3-(benzo[d][1,3]dioxol-5-ylamino)-1-(6-methoxy-5-(1H-pyrazol-4-yl)pyridin-2-yl)pyrrolidin-2-one] was less than 10 nM. The value for `COc1nc(N2CCC(Nc3ccc4c(c3)OCCO4)C2=O)ccc1-c1cn[nH]c1` (racemic) [Example 256, 3-((2,3-dihydrobenzo[b][l,4]dioxin-6-yl)amino)-1-(6-methoxy-5-(1H-pyrazol-4-yl)pyridin-2-yl)pyrrolidin-2-one] was 10 to 100 nM; that for `COc1nc(N2CCC(Nc3cccc(C#N)c3)C2=O)ccc1-c1cn[nH]c1` (racemic) [Example 257, 3-((1-(6-methoxy-5-(1H-pyrazol-4-yl)pyridin-2-yl)-2-oxopyrrolidin-3-yl)amino)benzonitrile] was less than 10 nM. The value for `COc1nc(N2CCC(Nc3cccc(C(N)=O)c3)C2=O)ccc1-c1cn[nH]c1` (racemic) [Example 258, 3-((1-(6-methoxy-5-(1H-pyrazol-4-yl)pyridin-2-yl)-2-oxopyrrolidin-3-yl)amino)benzamide] was less than 10 nM; that for `COc1nc(N2CCC(Nc3ccc4ncsc4c3)C2=O)ccc1-c1cn[nH]c1` (racemic) [Example 259, 3-(benzo[d]thiazol-6-ylamino)-1-(6-methoxy-5-(1H-pyrazol-4-yl)pyridin-2-yl)pyrrolidin-2-one] was less than 10 nM; that for `COc1nc(N2CCC(Nc3cccc(NC(C)=O)c3)C2=O)ccc1-c1cn[nH]c1` (racemic) [Example 260, N-(3-((1-(6-methoxy-5-(1H-pyrazol-4-yl)pyridin-2-yl)-2-oxopyrrolidin-3-yl)amino)phenyl)acetamide] was less than 10 nM. For the compound `COc1ccc(Cl)c(NC2CCN(c3ccc(-c4cn[nH]c4)c(OC)n3)C2=O)c1` (racemic) [Example 261, 3-((2-chloro-5-methoxyphenyl)amino)-1-(6-methoxy-5-(1H-pyrazol-4-yl)pyridin-2-yl)pyrrolidin-2-one], the IC50 lay in the range of 10 to 100 nM. The value for `COc1nc(N2CCC(Nc3cccc(-c4cnco4)c3)C2=O)ccc1-c1cn[nH]c1` (racemic) [Example 262, 1-(6-methoxy-5-(1H-pyrazol-4-yl)pyridin-2-yl)-3-((3-(oxazol-5-yl)phenyl)amino) pyrrolidin-2-one] was 10 to 100 nM. The value for `COc1nc(N2CCC(Nc3ccc4c(c3)CS(=O)(=O)C4)C2=O)ccc1-c1cn[nH]c1` (racemic) [Example 263, 3-((2,2-dioxido-l,3-dihydrobenzo[c]thiophen-5-yl)amino)-1-(6-methoxy-5-(1H-pyrazol-4-yl)pyridin-2-yl)pyrrolidin-2-one] was 100 to 2200 nM. The value for `COc1nc(N2CCC(Nc3cccc(S(=O)(=O)N4CCOCC4)c3)C2=O)ccc1-c1cn[nH]c1` (racemic) [Example 264, 1-(6-methoxy-5-(1H-pyrazol-4-yl)pyridin-2-yl)-3-((3-(morpholinosulfonyl)phenyl)amino)pyrrolidin-2-one] was 10 to 100 nM. For the compound `COc1nc(N2CCC(Nc3cccc(NS(C)(=O)=O)c3)C2=O)ccc1-c1cn[nH]c1` (racemic) [Example 265, N-(3-((1-(6-methoxy-5-(1H-pyrazol-4-yl)pyridin-2-yl)-2-oxopyrrolidin-3-yl)amino)phenyl)methanesulfonamide], the IC50 lay within 10 to 100 nM. The value for `COc1nc(N2CCC(Nc3cccc(-c4nnn[nH]4)c3)C2=O)ccc1-c1cn[nH]c1` (racemic) [Example 266, 3-((3-(1H-tetrazol-5-yl)phenyl)amino)-1-(6-methoxy-5-(1H-pyrazol-4-yl)pyridin-2-yl)pyrrolidin-2-one] was 10 to 100 nM; that for `COc1nc(N2CCC(Nc3cccc(OC(C)C)c3)C2=O)ccc1-c1cn[nH]c1` (racemic) [Example 267, 3-((3-isopropoxyphenyl)amino)-1-(6-methoxy-5-(1H-pyrazol-4-yl)pyridin-2-yl)pyrrolidin-2-one] was 10 to 100 nM. In turn, `COc1nc(N2CCC(Nc3cccc(S(N)(=O)=O)c3)C2=O)ccc1-c1cn[nH]c1` (racemic) [Example 268, 3-((1-(6-methoxy-5-(1H-pyrazol-4-yl)pyridin-2-yl)-2-oxopyrrolidin-3-yl)amino)benzenesulfonamide] gave an IC50 of less than 10 nM. The value for `COc1nc(N2CCC(Nc3nc(C(C)(C)C)cs3)C2=O)ccc1-c1cn[nH]c1` (racemic) [Example 269, 3-((4-(tert-butyl)thiazol-2-yl)amino)-1-(6-methoxy-5-(1H-pyrazol-4-yl)pyridin-2-yl)pyrrolidin-2-one] was 100 to 2200 nM. The value for `COc1nc(N2CCC(Nc3cc(C)nn3C)C2=O)ccc1-c1cn[nH]c1` (racemic) [Example 270, 3-((1,3-dimethyl-1H-pyrazol-5-yl)amino)-1-(6-methoxy-5-(1H-pyrazol-4-yl)pyridin-2-yl)pyrrolidin-2-one] was 10 to 100 nM. The value for `COc1nc(N2CCC(Nc3cc(C)n(C)n3)C2=O)ccc1-c1cn[nH]c1` (racemic) [Example 271, 3-((1,5-dimethyl-1H-pyrazol-3-yl)amino)-1-(6-methoxy-5-(1H-pyrazol-4-yl)pyridin-2-yl)pyrrolidin-2-one] was 100 to 2200 nM. `COc1nc(N2CCC(Nc3cnn(C(C)C)c3)C2=O)ccc1-c1cn[nH]c1` (racemic) [Example 272, 3-((1-isopropyl-1H-pyrazol-4-yl)amino)-1-(6-methoxy-5-(1H-pyrazol-4-yl)pyridin-2-yl)pyrrolidin-2-one] displayed an IC50 of 100 to 2200 nM. The value for `COc1nc(N2CCC(N3CCOCC3)C2=O)ccc1-c1cn[nH]c1` (racemic) [Example 273, 1-(6-methoxy-5-(1H-pyrazol-4-yl)pyridin-2-yl)-3-morpholinopyrrolidin-2-one] was 10 to 100 nM; that for `COc1nc(N2CCC(N3CCOC[C@H]3C)C2=O)ccc1-c1cn[nH]c1` (mixture of isomers) [Example 274, 1-(6-methoxy-5-(1H-pyrazol-4-yl)pyridin-2-yl)-3-((R)-3-methylmorpholino) pyrrolidin-2-one] was 10 to 100 nM; that for `COc1nc(N2CCC(N3CC(C)OC(C)C3)C2=O)ccc1-c1cn[nH]c1` (racemic) [Example 275, 3-(2,6-dimethylmorpholino)-1-(6-methoxy-5-(1H-pyrazol-4-yl)pyridin-2-yl)pyrrolidin-2-one] was 100 to 2200 nM.

Take `COc1nc(N2CCC(N3CCC(N(C)C)CC3)C2=O)ccc1-c1cn[nH]c1` (racemic) [Example 276, 3-(4-(dimethylamino)piperidin-1-yl)-1-(6-methoxy-5-(1H-pyrazol-4-yl)pyridin-2-yl)pyrrolidin-2-one]: the IC50 lay within 100 to 2200 nM.

Source of the values: US10112929B2, “Lactams as inhibitors of rock” (BRISTOL-MYERS SQUIBB COMPANY, priority 2015, dated 2018).
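Further: rho kinase enzyme reaction halted with EDTA, phospho- and non-phospho peptide separated for read-out, kinase activity inhibition derived across a dose-response series, DMSO under 2%.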
